Structures can show the parent of a compound that is named as a salt.
How the values were obtained:
[1] = molecular target: T1, recombinant BOD (bilirubin oxidase) derived from Myrothecium verrucaria MT-1 (Albifimbria verrucaria, UniProt Q12737); test: BOD activity after leaving the BOD solution with an activity improving agent or comparative substance at 30° C. in a deoxygenated atmosphere (Test Example 1); assay type: biochemical; details: for Activity (%) Day 0: 30° C., additive concentration as in Table 1; for Activity (%) Day 47: left 47 days at 30° C.; for Activity (%) Day 47 / Activity (%) Day 14: relative to Day 0, additive concentration as in Table 1; for Activity (%) Day 14: left 14 days at 30° C.
T1 construct: made in house; host or cells: Aspergillus sp
T1 sequence (Q12737 39-572): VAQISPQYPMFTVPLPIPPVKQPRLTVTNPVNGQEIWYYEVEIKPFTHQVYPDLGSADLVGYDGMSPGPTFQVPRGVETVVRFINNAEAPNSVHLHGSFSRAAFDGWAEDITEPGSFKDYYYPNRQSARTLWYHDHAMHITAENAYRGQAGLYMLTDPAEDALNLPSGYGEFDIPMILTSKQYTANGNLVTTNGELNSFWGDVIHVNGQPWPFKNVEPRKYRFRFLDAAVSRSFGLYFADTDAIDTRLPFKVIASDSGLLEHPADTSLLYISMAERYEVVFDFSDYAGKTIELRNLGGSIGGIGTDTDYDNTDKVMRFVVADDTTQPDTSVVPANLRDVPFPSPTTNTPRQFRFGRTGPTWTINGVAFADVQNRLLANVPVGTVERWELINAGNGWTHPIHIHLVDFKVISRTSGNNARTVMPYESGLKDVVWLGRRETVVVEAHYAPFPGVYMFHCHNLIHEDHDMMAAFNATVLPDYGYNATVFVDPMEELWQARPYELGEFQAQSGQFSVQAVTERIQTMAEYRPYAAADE
Protocol: A BOD solution, which contains: a BOD; and the present activity improving agent or a comparative substance, was left in an environment at a temperature of 30° C. in a deoxygenated atmosphere for a certain period of time. After the BOD solution was left as above, improvement of the BOD activity by the present activity improving method was evaluated by measurement of the BOD activity.
In Test Example 1, a BOD gene derived from a Myrothecium verrucaria MT-1 (GenBank accession number: D12579.1) was introduced into an Aspergillus sp., and then a recombinant BOD (hereinafter, also referred to simply as “BOD”) expressed in the Aspergillus sp. was purified by using a well-known technique and then used as the BOD. The BOD gene derived from the Myrothecium verrucaria MT-1 was codon-optimized in accordance with a gene sequence of the Aspergillus sp., and then introduced into the Aspergillus sp. Further, the BOD thus purified was dissolved in a 50 mM glycine-KOH (pH 8.5) buffer so that the concentration of the BOD became 1.0 mg/mL. Then, a resultant solution was used as a BOD enzyme solution.
The enzymatic activity of the BOD was measured as follows. To 1780 μL of a 50 mM potassium phosphate buffer (pH 6.5), 200 μL of a 20 mM ABTS substrate solution was added, so that a mixed solution (1980 μL) was prepared. This mixed solution was incubated for 1 min at 37° C. Thereafter, 20 μL of a solution containing the BOD (specifically, a BOD solution for evaluation, which will be described later) was added to the mixed solution, and a resultant mixed solution (2 mL) was incubated at 37° C. While the mixed solution was incubated, the absorbance of the mixed solution at a wavelength of 436 nm was measured immediately after that addition of the BOD solution for evaluation (at 0 seconds) and thereafter every 20 seconds. On the basis of (i) the absorbance of the mixed solution at a wavelength of 436 nm immediately after the addition of the BOD solution for evaluation and (ii) the absorbance of the mixed solution at a wavelength of 436 nm after a lapse of 1 minute from the addition of the BOD solution for evaluation, calculation was carried out for obtaining an increase rate per minute of the absorbance of the mixed solution at a wavelength of 436 nm after the addition of the BOD solution for evaluation. The BOD activity (unit) in the BOD solution for evaluation was calculated from the increase rate. In the present specification, the amount of enzyme for oxidizing 1 μmol of ABTS per minute was defined as one unit.
A specific test method of Test Example 1 is as follows. To a BOD enzyme solution containing a BOD, one of the above-described present activity improving agents was added, so that a BOD solution (which is the BOD solution according to an embodiment of the present invention) was prepared. Further, one of the above-described comparative substances was added to the BOD enzyme solution, so that another BOD solution was prepared. In addition, still another BOD solution was prepared by adding, to the BOD enzyme solution, distilled water in place of the activity improving agent or the comparative substance, so that a control (denoted as Without additive in Tables 1 to 3) was prepared. The final concentration of the activity improving agent or the comparative substance in each of the above BOD solutions was shown in “mM” or “percentage (%)” (amount (g) of the activity improving agent or the comparative substance relative to 100 mL of the BOD solution) in Table 1.
Thereafter, one of these BOD solutions and a deoxygenating agent (Anaero Pack manufactured by Mitsubishi Gas Chemical Company, Inc.) were included in one container. Then, the container was sealed, so that a BOD container was prepared. The BOD container was left in an environment at a temperature of 30° C. in a deoxygenated atmosphere for 47 days (Table 2) or 14 days (Table 3). […]

[2] = ABTS initial absorbance (A436) reduction rate (Test Example 3); assay type: physicochemical; details: for A436 reduction rate (%): in one minute at 25° C., 1 mM (single compound) or 0.011 g nitrogen element in 100 mL (composition), pH 8.5; for change of ABTS initial absorbance: reaction solution A, FIG. 2
Source text: In the present specification, the absorbance of a solution containing ABTS (ABTS solution), at a wavelength of 436 nm, is defined as an ABTS initial absorbance (A436). In the present specification, the ABTS initial absorbance (A436) reduction rate (%) of the activity improving agent is defined to be a reduction rate (%) of the absorbance of a mixed solution, which contains the above ABTS solution and the above activity improving agent, at a wavelength of 436 nm in one minute, with respect to the ABTS initial absorbance (A436) (100%). Note that the ABTS solution is a solution in which the concentration of ABTS is adjusted such that the absorbance (A436) at a wavelength of 436 nm is approximately 1.3 at an optical path length of 1.0 cm. The value “approximately 1.3” here is intended to mean a value in a range in which 1.3 is obtained by rounding the value to the first decimal place. Test Examples described later will explain specific methods for measuring the absorbance (A436) of the ABTS solution at a wavelength of 436 nm and the ABTS initial absorbance (A436) reduction rate (%) of the activity improving agent. ABTS is an abbreviation for 2,2′-azinobis(3-ethylbenzothiazoline-6-sulfonic acid).
In the present activity improving method, when the ABTS initial absorbance (A436) reduction rate (%) of the activity improving agent is measured, the concentration of the activity improving agent in the ABTS solution for measurement is set as follows: (a) the concentration is set to 1 mM, when the molecular weight of the activity improving agent is evident as in a case where the activity improving agent is made of a single compound; and (b) when the activity improving agent is a substance which is made of a composition having an inevident molecular weight, the content of nitrogen element is used as a reference and the concentration is set such that the content of nitrogen element derived from the activity improving agent is 0.011 g in 100 mL of the ABTS solution for measurement. Note that, in the above (b), the content of nitrogen element derived from the activity improving agent in the ABTS solution is a value calculated by the Kjeldahl method.
The following describes a specific evaluation method. ABTS employed was an ABTS manufactured by Roche Diagnostics K.K. Further, the ABTS was dissolved in a 50 mM glycine-KOH (pH 8.5) buffer so that the concentration of the ABTS became 2.0 mg/mL. An ABTS solution was thus prepared. The absorbance of the ABTS solution at a wavelength of 436 nm (ABTS initial absorbance (A436)) was measured at an optical path length of 1.0 cm, by using a molecular absorption spectrometer Spectra Max Plus 384 (manufactured by Molecular Devices Japan K.K.). As a result the absorbance was approximately 1.3. Next, 5 μL of an activity improving agent solution or a comparative substance solution was added to 195 μL of the ABTS solution, so that a reaction solution for evaluating ABTS (hereinafter, also referred to as “reaction solution A”) was prepared. […]

[3] = Day 0 (start of leaving, set to 100%)
[4] = Day 0 (start of leaving, set to 100%) of the 14-day test

Compound | Activity (%) Day 0 [1, 3] | Activity (%) Day 47 [1] | A436 reduction rate (%) [2] | Activity (%) Day 14 [1] | Activity (%) Day 0 [1, 4] | change of ABTS initial absorbance [2]
N.O=C(O)CS [Ammonium thioglycolate, ammonium thioglycolate, reference compound] | 100% | 0% | 87.81% |  |  | 
O=CC(=O)O [Glyoxylic acid, glyoxylic acid] |  |  | 0.33% | 194% |  | 
O=S([O-])[O-].[Na+].[Na+] [Sodium sulfite, sodium sulfite] | 100% | 162% | 87.81% |  |  | 
O[C@H](CS)[C@H](O)CS (racemic) [DTT, dithiothreitol, reference compound] |  | 0% | 87.81% |  |  | 
NCCS [Cysteamine hydrochloride, cysteamine hydrochloride, reference compound] |  | 1% | 87.81% |  |  | 
Cc1c(C)c2c(c(C)c1O)CCC(C)(C(=O)O)O2 (stereo not shown) [Trolox] |  | 251% | 83.90% |  |  | 
NC(N)=O [Urea, urea, reference compound] |  |  | 0.00% | 56% | 100% | does not change
O=C(CS)OCC(O)CO (stereo not shown) [GMT, glyceryl monothioglycolate, reference compound] |  | 1% | 87.81% |  |  | 
N[C@@H](CCC(=O)N[C@@H](CS)C(=O)NCC(=O)O)C(=O)O [Glutathione (reduced form), glutathione (reduced form)] | 100% | 113% | 87.81% |  |  | 
N.N.O=S(=O)(O)O [Ammonium sulfate, ammonium sulfate, reference compound] |  |  | 0.00% | 65% | 100% | does not change
CC(=O)N[C@@H](CS)C(=O)O [N-acetyl-L-cysteine] |  | 122% | 87.81% |  |  | 
Cl.N[C@@H](CS)C(=O)O [L-cysteine hydrochloride] |  | 130% | 87.81% |  |  | 

From patent US20220017877A1, “BILIRUBIN OXIDASE ACTIVITY IMPROVING METHOD, AND BILIRUBIN OXIDASE PRODUCT” (OZEKI CORPORATION, priority 2018, published 2022)
